# According to PMC9926234, “Iterative computational design and crystallographic screening identifies potent inhibitors targeting the Nsp3 macrodomain of SARS-CoV-2” (Proceedings of the National Academy of Sciences of the …, 2023):
# Where two headings read alike, the source gives them in different places.
# How the values were obtained:
# SARS-CoV-2 NSP3 Mac1 [1] = molecular target: T1, SARS-CoV-2 NSP3 Mac1 (Severe acute respiratory syndrome coronavirus 2, UniProt P0DTD1); assay type: binding; details: for HIT*: true hit = binding in crystallographic soaking or the HTRF-based binding assay
# SARS-CoV-2 NSP3 Mac1 [2] = molecular target: T1, SARS-CoV-2 NSP3 Mac1; assay type: binding; parameters: contains a conserved macrodomain enzyme (Mac1); details: for Spearman est (compound concentration vs apparent Tm): DSF dose responsiveness, 1 µM nsp3 mac1, adj p given
# Experimental: DSF and associated compound handling was performed as described ([12]), with 5 µM dye “Fluorescent Yellow” (Jacquard iDye Cat #JID1405) used in place of SYPRO Orange. Compounds were tested in triplicate, at seven concentrations in two-fold serial dilutions, at a top concentration of either 1,000 or 100 μM. To minimize experimental noise arising from plate location-based effects on Tma, all concentrations and replicates for each compound were tested within a single region of the microtiter plates, including a DMSO-only control from which ΔTmas were calculated for that compound. […] For each compound, to determine statistical significance of the dose responsive thermal shift, the Spearman’s coefficient was calculated between compound concentration and ΔTma.
# [3] = PanDDA event map 1-BDC, crystal soak, Compound_concentration 100 mM, PanDDA run dmso_34 or nohits_35 per dataset
# [4] = crystal soak, Compound_concentration 100 mM, Echo dispense 40 nl, PanDDA run dmso_34 or nohits_35 per dataset
# [5] = maximal thermal upshift vs DMSO control
compound,measurement,setting,value
OCC1CN(c2ncnc3[nH]c4cc(F)ccc4c23)CC2(CCC2)O1 (stereo not shown) [LL123_0025],1-BDC,"SARS-CoV-2 NSP3 Mac1 [1]; PanDDA 1-BDC of the event, compound stock 100 mM, Echo dispense volume 80 nl",0.1
same,1-BDC,SARS-CoV-2 NSP3 Mac1 [1]; [3],0.09
same,1-BDC (PanDDA),"SARS-CoV-2 NSP3 Mac1 [1]; PanDDA event map, 1 minus background density correction, crystal soaking of Mac1",0.07
same,1-BDC,"SARS-CoV-2 NSP3 Mac1 [1]; PanDDA event map, crystal soak, Compound_concentration 100 mM, Echo_dispense_volume 40 nl",0.07
same,PanDDA hit?,SARS-CoV-2 NSP3 Mac1 [1]; [4],TRUE
same,PanDDA hit?,"SARS-CoV-2 NSP3 Mac1 [1]; crystal soak, Compound_concentration 100 mM, Echo_dispense_volume 40 nl, PanDDA run (background map) dmso_34, nohits_35 or nohits_62",TRUE
same,PanDDA hit?,"SARS-CoV-2 NSP3 Mac1 [1]; crystal soak, compound stock 100 mM, Echo dispense volume 80 nl",TRUE
same,Modeled?,"SARS-CoV-2 NSP3 Mac1 [1]; ligand modeled, crystal soak, Compound_concentration 100 mM, Echo_dispense_volume 40 nl",TRUE
same,Refined occupancy,"SARS-CoV-2 NSP3 Mac1 [1]; ligand occupancy after refinement (phenix.refine), crystal soaking of Mac1",14
same,HIT*,SARS-CoV-2 NSP3 Mac1 [1],Y
CNc1ccc(C(=O)N2CC(C(=O)O)CC2(C)C)cn1 (stereo not shown) [REAL250001652488],Spearman est (compound concentration vs apparent Tm),SARS-CoV-2 NSP3 Mac1 [2],0.12
same,DSF max dTma,SARS-CoV-2 NSP3 Mac1 [2]; maximal thermal upshift,0.21 ˚C
NC(=O)c1cc(N2CCCC[C@H]2C(=O)O)ncn1 [REAL250003324764],Spearman est (compound concentration vs apparent Tm),SARS-CoV-2 NSP3 Mac1 [2],0.14
same,DSF max dTma,SARS-CoV-2 NSP3 Mac1 [2]; maximal thermal upshift,0.15 ˚C
CNc1ccc(C(=O)N2CC(C(=O)O)CC23CCOCC3)cn1 (stereo not shown) [REAL300007318908],Spearman est (compound concentration vs apparent Tm),SARS-CoV-2 NSP3 Mac1 [2],0.29
same,DSF max dTma,SARS-CoV-2 NSP3 Mac1 [2]; maximal thermal upshift,0.04 ˚C
FC1(F)CCCC(Nc2ncnc3[nH]ccc23)C1 (stereo not shown) [SRH-0014],1-BDC,SARS-CoV-2 NSP3 Mac1 [1]; [3],0.09
same,PanDDA hit?,SARS-CoV-2 NSP3 Mac1 [1]; [4],TRUE
O=C(Cc1ccc2c(c1)CCO2)OCc1cc2ccccc2[nH]c1=O [Z0132],DSF max dTma,SARS-CoV-2 NSP3 Mac1 [2]; [5],0.21 °C
CN(Cc1nnc2c(=O)[nH]ccn12)C(=O)COC1CC1 [Z0288],DSF max dTma,SARS-CoV-2 NSP3 Mac1 [2]; [5],0.49 °C
Cc1cnc(COC(=O)C(C)(C)c2ccc(O)cc2)o1 [Z0329],DSF max dTma,SARS-CoV-2 NSP3 Mac1 [2]; [5],0.06 °C
CC1CN(C(=O)CCc2nc(-c3ccncc3)no2)C1c1ccccc1 (stereo not shown) [Z0856],DSF max dTma,SARS-CoV-2 NSP3 Mac1 [2]; [5],0.6 °C
COc1ccc(Cl)cc1Cn1cnc2c(N)ncnc21 [Z0953],DSF max dTma,SARS-CoV-2 NSP3 Mac1 [2]; [5],0.27 °C
O=c1[nH]ccn2c(CSc3nc4ccccc4s3)nnc12 [Z1015],DSF max dTma,SARS-CoV-2 NSP3 Mac1 [2]; [5],0.67 °C
Nc1ncnc(SCCc2cccc(Cl)c2Cl)n1 [Z1086],DSF max dTma,SARS-CoV-2 NSP3 Mac1 [2]; [5],0.21 °C
Cc1ccc(-c2noc(CCCSC3CCCNC3=O)n2)cc1F (stereo not shown) [Z1121],DSF max dTma,SARS-CoV-2 NSP3 Mac1 [2]; [5],0.57 °C
CN(Cc1cccc(O)c1)C(=O)Cc1ccncc1 [Z1186],DSF max dTma,SARS-CoV-2 NSP3 Mac1 [2]; [5],0.19 °C
Nc1ncc(S(=O)(=O)N2CC(F)(F)C[C@H]2C(=O)O)cn1 [Z1314],HIT*,SARS-CoV-2 NSP3 Mac1 [1],Y
